Experimental data: patent US11168047B2, “Cocrystal of 2-[(1R,6R)-6-isopropenyl-3-methylcyclohex-2-en-1-yl]-5-pentylbenzene-l,3-diol” (ENANTIA, S.L., priority 2017, dated 2021)

What was measured:
[1] = in humans; cited from earlier work
[2] = open vial, 40° C. and 75±5% relative humidity
Experimental: The aim of the study is to evaluate the stability of cocrystal Form I of the present invention.
Cocrystal Form I of the present invention obtained by the process disclosed in section 1.1.B.1.
Cocrystal Form I (55 mg) is stored in an open vial and exposed to accelerated stability conditions (40° C. and 75±5% relative humidity) according to ICH guidelines (Guidance for Industry Q1A(R2) Stability Testing of New Drug Substances and Products—available on the website http://www.ich.org/products/guidelines/quality/quality-single/article/stability-testing-of-new-drug-substances-and-products.html on Aug. 4, 2017).

Row | SMILES | oral bioavailability [1] | stability (solid form) [2]
1 | C=C(C)[C@@H]1CCC(C)=C[C@H]1c1c(O)cc(CCCCC)cc1O [CBD, 2-[(1R,6R)-6-isopropenyl-3-methylcyclohex-2-en-1-yl]-5-pentylbenzene-1,3-diol] | 6-33% | 
2 | C=C(C)[C@@H]1CCC(C)=C[C@H]1c1c(O)cc(CCCCC)cc1O.O=C(O)[C@@H]1CCCN1 [cocrystal Form I, cocrystal of 2-[(1R,6R)-6-isopropenyl-3-methylcyclohex-2-en-1-yl]-5-pentylbenzene-1,3-diol with L-proline] |  | remained stable for at least three weeks
